This is an account of results in patent US11415513B2, “Method for determining the degree of sensitivity of a strain of fungus to an antifungal agent” (UNIVERSITE GRENOBLE ALPES, priority 2015, dated 2022).

Each structure is given as a SMILES string. Starred links: 1 amine or outer side, 2 acyl side, 3 side chain; linkers in the order of their positions; H or OH if unused. Positions of bridges follow the written chain, without caps; N, C: chain ends. Non-standard residues stand in square brackets, D forms with d. Residues, ends and D or L forms follow the SMILES beside them. *: point of attachment. hTyr(3S-OH,4S-OH,3'-OSO3H) = N[C@H](C(=O)O)[C@H](O)[C@@H](O)c1ccc(O)c(OS(=O)(=O)O)c1; Orn(4R-OH,5R-OH) = O=C([C@H](C[C@@H](O)[C@@H](O)N[*:3])N[*:1])[*:2]; Pro(3S-OH,4S-Me) = C[C@H]1CN[C@H](C(=O)O)[C@H]1O; X1 = CCCCCOc1ccc(-c2cc(-c3ccc(C(=O)*)cc3)no2)cc1; Gln(3R-OH) = NC(=O)C[C@@H](O)[C@H](N)C(=O)O; Hyp = O=C(O)[C@@H]1C[C@@H](O)CN1

This test concerns strain 13/5 of C. tropicalis. The test can be described thus: Sensitivity test by HCA microscopy (chitin level, Calcofluor White). It counts as cell-based, Candida tropicalis. To be noted: 6.5 h at 30° C., SC medium. Here is the method:
The strains of Candida were incubated beforehand at 30° C. overnight in a yeast extract medium—peptone dextrose (YPD) (1% bacto peptone, 0.5% yeast extract, 2% glucose, 1.5% agar).
Yeast colonies were then removed from YPD medium plates and suspended in a 0.9% NaCl saline solution, in which the cell concentration was estimated by optical microscopy using Kova counting slides. […]
A step of acquiring images by automated fluorescence microscopy (ScanR screening station, Olympus), using a 40× lens and a CFW filter, made it possible to obtain 30 images per well so as to capture enough cells to provide statistically significant data. These images were analysed by software (ScanR analysis software, Olympus). Firstly, the background noise was processed so as to improve the contrast between the fluorescence of the yeasts and background noise. […] Segmentation of the fluorescent elements present in each of the acquired images was then performed using an algorithm predefined in the software, making it possible to determine the limit of each element on the basis of the fluorescence intensity of said element. […]
Each element then corresponding to a yeast, it was thus possible, on the basis of these elements predefined beforehand, to define the fluorescence intensity for each of the yeasts, this intensity being directly correlated with the chitin content of their wall. […]

Turning to `CCCCCOc1ccc(-c2cc(-c3ccc(C(=O)N[C@H]4C[C@@H](O)[C@@H](O)NC(=O)[C@@H]5[C@@H](O)[C@@H](C)CN5C(=O)[C@H]([C@H](O)CC(N)=O)NC(=O)[C@H]([C@H](O)[C@@H](O)c5ccc(O)c(OS(=O)(=O)O)c5)NC(=O)[C@@H]5C[C@@H](O)CN5C(=O)[C@H]([C@@H](C)O)NC4=O)cc3)no2)cc1` [micafungin] (X1-[Orn(4R-OH,5R-OH)]T[Hyp][hTyr(3S-OH,4S-OH,3'-OSO3H)][Gln(3R-OH)][Pro(3S-OH,4S-Me)]; lactam 1-C), the “phenotype of the strain with respect to the antifungal agent (HCA)” value was “resistant (an increase in the chitin level having a value less than 10% or a decrease in the chitin level of less than 20% or an unchanged chitin level)”. The “increase in the chitin level in the wall of the cells” value (vs cells in the absence of antifungal agent, concentration gradient up to 1 μg/ml) was “less than 10%”.
